From patent EP2444396A1, “PHOTOPROTECTIVE COMPOSITION” (Apoteknos Para La Piel, S.L., priority 2009, dated 2010)
In brackets after ≈: the same amount, converted by molar mass. Marks after values point to notes of the source that are not given here.

Columns and labels:
[1] = tested on: Erythema induced by UVB radiation in mouse; assay: Photoprotection: erythema induced by UVB radiation in mouse skin; format: in vivo; settings: intensity of erythema in application area versus surrounding non treated area (subjective criterion); 0.5% gel topical; listed as m-nitrotophine
[2] = UV spectrum: wavelengths of maximum absorption and absorbance (Cecil 2021 UV-Visible Spectrophotometer); format: physicochemical
[3] = tested on: Erythema induced by UVB radiation in mouse; assay: Photoprotection: erythema induced by UVB radiation in mouse skin; format: in vivo; set-up: key to Erythema induced by UVB radiation in mouse: presence (+); absence (-); settings: 0.5% gel topical, about 2.5 kJ/m^2 UVB, 24 hours after exposure; for % Protection: percentage of protected animals
Text: The effect of p-nitrolophine and m-nitrolophine on erythema due to exposing the mouse skin to an irradiation source at maximum in the UVB region has been studied in these assays. The results obtained have been compared with the effect of 4-methylbenzylidene camphor (P5000) a substance considered as a UVB solar filter and with the effect of butyl methoxydibenzoylmethane (P1789) an UVA type filter, both products being commonly used in antisolar cosmetics.
35 male mice weighing more than 20 grams have been used. After receiving them, the animals were acclimated for 7 days at the place where the assays were preformed, they were being placed in a cage with controlled temperature (22°C), with relative humidity between 50% and 75%, replacing fresh filtered air approximately 10 times per hour and with 12 h light/dark cycles (7.00 - 19.00 light and from 19.00 to 7.00 dark). For this period and during the experimental period, the animals were fed ad libitum with standard diet for rodents and running water as drink.
The animals were randomly distributed into 4 experimental groups according to Table 7. The products to be tested were directly used, applying them in the form of a gel on an area of the skin such that each animal form its own control.
The test was performed following the method described by Winder et al. ["A study of Pharmacological influences on ultraviolet erythema in guinea pigs". Arch. Int Pharmacodyn, 116:261-292; 1958] and by other authors [Wendy et al. "The local antinociceptive and topical antiinflamatory effects of propyl gallate in rodents". Br. J. Pharmacol, 58:573 -581; 1976; Katiyar et al. "Protective Effects of Silymarin Against Photocarcinogenesis in a Mouse Skin Model". J Natl Cancer Inst 89:556-65; 1997] with slight modifications. The day […] the assay, as much hair as possible were removed from the animals by applying a layer of commercial hair-removing cream to remove all the trace of hair and to leave the skin of the back completely bare. The rest of the hair-removing cream were removed by means of washing and rinsing with running water and the animals were the returned to their corresponding cages where they remained until the following day.
On the day of the assay, the substances to be assayed were blindly applied on the back of the previously labelled animals following a random pattern (randomized). After applying the corresponding treatments, the animals were placed and pinned to the presentation platform of the equipment. The animals were then placed 8 cm from an ultraviolet light source of 4*40w with 313 nm of fundamental emission and a range comprised approximately between 290 and 350 nm and with an anti-UVC filter. The emission spectrum of said light source is depicted in Figure 1.
The exposure was maintained until all the animals have received an approximate total dose of 2.5 kJ/m^2. The dose of irradiation applied was determined by means of a ultraviolet light detector, the response curve of which is shown in Figure 2.
Twenty four hours after ending the exposure, the back of the animals was photographed and they were returned to their cages. The evaluation of erythema was performed by means of a positive/negative criterion, the percentage of protected animals being obtained. The statistic significance of the difference was evaluated by means of the non-parametric Fisher Test.

[4] = Absorption spectrum in methanol (195 - 400 nm); format: physicochemical; settings: peak wavelength, 10 mg/ml
Experimental: In order to determine the absorption spectrum, a solution of 10 mg/ml of methanol was prepared from each of the substances. The methanol in turn was used to adjust the zero absorbance in each of the wavelengths in the range of 195 - 400 nm.

[5] = Solubility in organic solvents; format: physicochemical; settings: methanol, organic solvent or mixture, thermodynamic from solid; MeOH
[6] = tested on: MCF-7 breast cancer cell line; assay: E-Screen cell proliferation test; format: cell-based, human; settings: MCF-7 cells; for Proliferative effect (PE) Mean: 144 hours, negative control = 1
Text: The E-Screen proliferation test is based on the use of MCF-7 breast cancer cell line. The MCF-7 cells [which endogenously expressed the estrogen receptor alpha (ERα)], respond to the treatment with estradiol increasing its proliferative rate, synthesizing new proteins and transcribing certain specific genes. […] The test compares the number of cells or the cell proliferation obtained after 6 days of culture. The cells grow in culture medium supplemented with human serum lacking of estrogens, in the presence and/or absence of estradiol as well as of the chemical compounds suspected of having estrogenic activity. The E-Screen test was performed following the methodology previously described by Soto et al. ["An in culture bioassay to assess the estrogenicity of xenobiotics. […] Health Perspect. 103:844-850; 1995]. […] The assay was ended after 144 hours of subculture (exponential phase) after drawing out the medium and fixing the cells for the application of sulforhodamine-B technique. Finally, the cell growth for each experimental group is related to the growth obtained for the negative control (absence of hormone) and with respect to estradiol (positive control). Once the E-Screen test is performed, the maximum cell proliferation rate induced by the compound also known as proliferative effect (PE) was established by calculating the ratio existing between the maximum proliferation rate obtained for the compound and the proliferation rate of the negative control. The proliferation data corresponding with the successive dilutions of the compound were transformed after the application of the correction factor for the dilution of each experimental point, the arithmetic mean of the data obtained being calculated. Another parameter is the relative proliferative efficiency (RPE). […] In this assay, the estrogenicity E-Screen test commonly used to identify the hormonal activity of compounds interacting specifically with the estrogen receptor alpha (ERα), has been used. The assays were performed in triplicate for each concentration (range: 300-0.003 µg/ml) in at least three independent experiments.

[7] = Photostability evaluation (irradiation in MeOH, TLC analysis); format: physicochemical; settings: saturated solution in 200 mL MeOH, 2 hours of irradiation, isolated by column chromatography
Experimental: All the irradiations preformed in the photostability studies were carried out in an ACE 7840 photoreactor using a 450W power ACE 7825 lamp.
The solvent used in the photostability test was methanol [MeOH] (ppa) (250 mL), using a concentration of […] of p-nitrolophine. The solution was irradiated for 2 hours, samples being taken at 10 minutes, 20 minutes, 1 hour and 2 hours, and being dried in a rotating evaporator. Each sample was analyzed by thin layer chromatography (TLC in Silica gel) using petroleum ether:ethyl acetate (4:1) as eluent. The chromatography plates were viewed under a 254 nm lamp and a 366 nm lamp, as well as by means of simultaneous viewing under both lamps (254 and 366 nm).
Specifically, three photoproducts (three blots) could be determined, which were isolated by preparative TLC.
A saturated solution of m-nitrolophine in MeOH was prepared to perform the study since the solubility in this solvent is low (approximately 0.2 mg/mL). Briefly, an amount of m-nitrolophine sufficient to ensure the saturation in 200 mL of MeOH throughout the night was left stirring. The solution was filtered and irradiated for 2 hours, samples of 10 mL being taken at 10 minutes, 20 minutes, 1 hour and 2 hours, and being dried in rotating evaporator. […]

UV spectrum A (a.u) ([2]; absorbance at the maximum of the same line): 1.194 a.u
UV spectrum λ (nm) ([2]; wavelengths of the maximum absorption): 309.0 nm
maximum absorption [4]: 309 nm
solubility [5]: ~200 µg/mL (≈ 586 µM)
photodecomposition product [7]: 5.7 mg
SMILES: O=[N+]([O-])c1cccc(-c2nc(-c3ccccc3)c(-c3ccccc3)[nH]2)c1 [m-nitrolophine, 2-(3-nitrophenyl)-4,5-diphenyl-1H-imidazole]
% Suppression [1]: 60 - 80%*
Erythema induced by UVB radiation in mouse ([3]; individual animals No. 1-10): -
% Protection [3]: 100%
% Protection ([3]; listed as m-nitrotophine): 100%*
estrogenicity ([6]; E-Screen, conclusion in words): not an estrogenic compound for the receptor alpha
Proliferative effect (PE) Mean ([6]; 3x10^-1 mg/ml): 1.45
Proliferative effect (PE) Mean ([6]; 3x10^-2 mg/ml): 1.30
Proliferative effect (PE) Mean ([6]; 3x10^-3 mg/ml): 1.19
Proliferative effect (PE) Mean ([6]; 3x10^-4 mg/ml): 1.10
Proliferative effect (PE) Mean ([6]; 3x10^-5 mg/ml): 1.08
Proliferative effect (PE) Mean ([6]; 3x10^-6 mg/ml): 1.06
proliferative effect ([6]; all the tested concentrations range (300-0.003 µg/ml)): lower than 1.5
